Measured values as given in patent US10240133B2, “ERK-derived peptides and uses thereof” (Yeda Research and Development Co. Ltd., priority 2013, dated 2019).

Key:
[1] = tested on: PLX-4032 and U0126 resistant A2352 melanoma cells; test: Proliferation of inhibitor-resistant melanoma cells; format: cell-based
Procedure: (A) A2352 melanoma cells resistant to either PLX4032 (B-Raf) or U0126 (MEK) inhibitors were treated with DMSO, EPE or Scr peptide (10 μM), U0126 (10 μM), PLX4032 (1 μM), Wortmannin (0.5 μM) or Taxol (25 μg/ml). Presented as percent of viable cells at 72 h/initial cell number. […] Methylene blue assay was performed to quantify viable cells. Experiments were done twice in triplicate. Data presented as fold change.
A2352 cells were supplemented with either PLX4032 (B-Raf inhibitor, 1 μM), or U0126 (MEK inhibitor, 10 μM) for 45 days. […]

[2] = tested on: other cell lines examined; test: Apoptosis (TUNEL, PARP-1 cleavage); format: cell-based
Procedure: (§1) FIGS. 5A-5D illustrate that the EPE peptide leads to apoptosis of B-Raf mutant cancer cells. (A) The EPE peptide affects the morphology of treated cells. The indicated cells were treated with either the EPE or Scr peptides, DMSO, or taxol for 72 h, and photographed by a light microscope. (B) The EPE peptide induces apoptosis in melanoma cells detected by TUNEL. The indicated cell lines were treated as in A for 24 h. Apoptosis was detected by TUNEL staining. Images were obtained by florescence microscope. (C) Quantification of B. The bar-graph represents percent of apoptotic cells calculated in 10 different fields. (D) The EPE peptide induces apoptosis of melanoma cells detected by PARP cleavage. The indicated cell lines were treated as in (A) for 24 h. Cell extracts were subjected to Western blotting with αPARP Ab.
Cells were seeded on glass cover slips in a 12-wells plate at 25% confluence with medium containing 1% of FCS. Peptides (EPE or Scr), DMSO, or U0126 in a final concentration of 10 μM, were added after 4 h (considered as time “0”). TUNEL staining was performed at 24 h after the treatment according to manufacturer instruction (Roche Applied Science, Nutley, N.J., USA). Briefly, the medium was removed and cells were fixed with 3% of paraformaldehyde (1.5 h, 23° C.). Cells were rinsed twice with PBS and permeabilized with 0.1% Triton X-100 and 0.1% sodium citrate for 2 min on ice. Cells were rinsed twice with PBS and 28 μl of TUNEL reaction mixture (25 μl of TUNEL label, 2.5 μl of TUNEL enzyme and 0.1 mg/ml of DAPI) was added directly on top of the slide, cells were incubated for 16 h in humid box at 37° C. Cover slips were rinsed three times with PBS and mounted on microscope slides. The slides were dried and then subjected to image acquisition by a florescence microscope. For morphology assay, the cells were seeded at approximately 25% confluence in 6 cm plates with medium containing 1% FCS. Peptides (EPE and Scr) or DMSO or U0126 in a final concentration of 10 μM, were added after 4 h (considered to be time 0), 24 h and 48 h. Images were obtained by a light microscope (Olympus BX51) after 72 h.

ERK1/2 = test: Nuclear translocation of ERK (fluorescence microscopy, subcellular fractionation); format: cell-based; conditions: HeLa cells
Procedure: FIGS. 1A-1F illustrate that EPE peptide prevents nuclear translocation of ERK1. A2352 (A), MDA-MB-231 (B) HeLa (C), T47D (D), NHEM-AD (E) and HB2 (F) cells were serum-starved, pretreated with the EPE peptides, Scr peptide (10 μM, 2 h) DMSO and then either stimulated with TPA (250 nM, 15 min) or left untreated (NS) as control. The cells were stained with αgERK1/2 Ab and DAPI. Scale-bar—15 μm.
FIGS. 12A-12D illustrate that the EPE peptide inhibits the nuclear translocation of ERK1/2. Serum-starved (0.1% FCS, 16 hr) A2352 (FIG. 12A), HeLa (FIG. 12B), MDA-MB-231 (FIG. 12C), or LOXMVI (FIG. 12D) cells were pretreated with EPE or scrambled peptides (10 μM, 2 hr). Cells were then stimulated with EGF (50 ng/ml) or left untreated, and then harvested. Subcellular fractionation of cytoplasm and nucleus was performed as below, and fractions were subjected to Western blot analysis with the indicated Abs. Subcellular Fractionation was performed as follows: Harvested cells were resuspended in 200 μl of buffer H containing 0.1% Nonidet P-40. The lysates were mixed vigorously and centrifuged immediately to yield supernatants containing the cytosolic fraction. Nuclear proteins were extracted by resuspending the nuclear pellets in 200 μl of extraction buffer, waiting on ice for 5 min, brief sonication (2×5 sec, 40 W, 4° C.), vigorous mixing, and centrifugation. Both cytosolic and nuclear fractions were subjected to Western blotting.
A2185 (A) and A2352 (B) B-Raf melanoma cells were serum-starved (16 hours, 0.1% FBS), and then either pretreated with the EPE peptides (10 μM, 2 hours) or left untreated. Then, the cells were stimulated with TPA ([…], 20 min), or left untreated (NS) DMSO as control. The cells were stained with either anti ERK1 (Santa Cruz, C16) or anti ERK2 (C14, Santa Cruz) Abs and DAPI. (C) Quantification of the number of cell in which ERK1 or ERK2 were mostly (>80%) localized in the nucleus was performed by counting 5 fields containing 100 cells per field.
FIGS. 15A-15B illustrate that the EPE peptide prevents nuclear accumulation/translocation of ERK1/2 in PLX4032-resistant melanoma cells. A2352 that were made resistant to PLX4032 (as described under Material and Methods) and A4132 PLX4032 resistant melanoma cell from patient were serum-starved (16 hours, 0.1%), pretreated with the EPE or scrambled peptide (10 μM, 2 hours) and then either stimulated with TPA (100 nM, 20 min) or left untreated (NT) as control. The cells were stained with αgERK1/2 Ab and DAPI.
Cells were fixed in 3% paraformaldehyde in PBS (20 min, 23° C.), and then permeabilized and blocked with 0.2% Triton X-100 in PBS-BSA (2%) for 20 min at 23° C. The fixed cells were sequentially incubated with appropriated Abs, (diluted in 10 μg/ml BSA/PBS) for 1 h, followed by either Cy-2 or rhodamine-conjugated secondary Abs and DAPI (diluted in BSA/PBS, 1:200) for 1 h. To follow the subcellular localization of the biotin-conjugated peptides, cells were incubated with Avidin-FITC (diluted in BSA/PBS 1:400) and DAPI. Slides were analyzed and photographed by a fluorescent microscope (Nikon, Japan, 600× magnification).

B-Raf melanoma cells = test: Morphology assay (light microscopy); format: cell-based; conditions: 10 μM
Procedure: as §1
Cells were seeded on glass cover slips in a 12-wells plate at 25% confluence with medium containing 1% of FCS. Peptides (EPE or Scr), DMSO, or U0126 in a final concentration of 10 μM, were added after 4 h (considered as time “0”). TUNEL staining was performed at 24 h after the treatment according to manufacturer instruction (Roche Applied Science, Nutley, N.J., USA). Briefly, the medium was removed and cells were fixed with 3% of paraformaldehyde (1.5 h, 23° C.). Cells were rinsed twice with PBS and permeabilized with 0.1% Triton X-100 and 0.1% sodium citrate for 2 min on ice. Cells were rinsed twice with PBS and 28 μl of TUNEL reaction mixture (25 μl of TUNEL label, 2.5 μl of TUNEL enzyme and 0.1 mg/ml of DAPI) was added directly on top of the slide, cells were incubated for 16 h in humid box at 37° C. Cover slips were rinsed three times with PBS and mounted on microscope slides. The slides were dried and then subjected to image acquisition by a florescence microscope. For morphology assay, the cells were seeded at approximately 25% confluence in 6 cm plates with medium containing 1% FCS. Peptides (EPE and Scr) or DMSO or U0126 in a final concentration of 10 μM, were added after 4 h (considered to be time 0), 24 h and 48 h. […]

A2352 xenografts = test: Tumor disappearance and recurrence in A2352 xenografts, EPE peptide compared with PLX4032; format: in vivo, SCID mice
Procedure: FIGS. 6A-6B illustrate that the EPE peptide prevents the growth of human tumor xenografts. CD-1 nude mice were inoculated with MDA-MB-231, LOXIMVI and HCT-116 cells, and SKID mice were inoculated with A2352 cells. Upon tumors establishment, the mice were treated intravenously with the DMSO as well as EPE or Scr peptides in the indicated doses, 3 times a week. The results are averages of 5 mice in each experimental group. The X, Y, Z dimensions of the tumors were measured with a caliper, and the volume was calculated accordingly. The significance of all experiments was at least P<0.001. (B) The EPE peptide prevents tumor recurrence on melanoma xenograft. SCID mice were inoculated with A2352 cells. Upon establishment of tumors mice were treated intravenously with 15 mg/kg EPE peptide (n=7) or intraperitonealy with 15 mg/kg PLX4032 (n=5), at the indicated dose 3 times a week. Tumor size was recorded at the same time using a caliper. Following 3 weeks of treatment, mice were kept for further evaluation monitoring for any tumor recurrence of the effective treated melanoma xenografts. Experiment was concluded 110 days post inoculation (11 weeks after the last treatment) and the overall state of the animals was evaluated. sac=sacrificed, recur=recurrence, met=metastasis.
Tumor dimensions were measured with a digital sliding caliper.

[3] = tested on: N-Ras transformed melanoma cells LOXIMVI; test: Cell viability, EPE peptide compared with PLX4032; format: cell-based; conditions: EPE 10 μM, PLX4032 1 μM, 1% FCS
Procedure: (§2) FIGS. 3A-3B illustrate that EPE peptide prevents proliferation of cancer but not normal cells. (A) Effect of the EPE peptide on the proliferation of various cell lines. Sixteen cancer and four “normal” immortalized cell lines were treated with either EPE or scrambled peptides as described above. Viable cells were assayed by Methylene Blue at 48 or 72 hours after cell seeding. The data from at least three independent experiments is presented as percent of the amount of viable cells/initial cell number, where initial cell number was considered as 100. (B) Comparison of the effects of the EPE-peptide and Raf inhibitor PLX4032 on cell viability. NHEM-Ad, LOXIMVI, A2352, Hela MDA-MB-231, and DU-145 cells were treated with EPE peptide, scrambled peptide, (10 μM), PLX4032 (1 μM), DMSO control, or no treatment at 1% FCS. The number of cells was detected as above. The graphs present the kinetic of cell growth at the indicated times. All experiments were repeated 3 times in triplicates.
(§3) All cells, except of MCF-10A, were seeded into 12-well cell plates in 1% FBS medium. MCF-10A cells were seeded in their complete medium diluted 5 fold. DMSO, Scr peptide, EPE peptide, or U0126 (final concentration of 10 μM each) were added to the appropriated wells four hours later. Every day medium was changed to fresh one containing the same agents. The number of viable cells was measured by Methylene Blue assay at 72 h after cell seeding. Shortly, cells were fixed with 4% Formaldehyde for 2 h at 23° C., washed once with 0.1M Borate Buffer pH 8.5 and stained with of 1% Methylene Blue in 0.1M Borate Buffer for 10 min. Color was extracted by adding 0.1 M HCl for 3 h at 23° C., and examined at 595 nm. For time course experiments, viable cells were measured at 0, 24, 48, 72 and 96 h after cell seeding. For dose response experiments we treaded the cells with 0.1, 1, 3, 10, or 30 μM of peptides for 72 h, as described above.

[4] = tested on: non-transformed melanocytes (NHEM-Ad); test: Cell viability, EPE peptide compared with PLX4032; format: cell-based; conditions: EPE 10 μM, PLX4032 1 μM, 1% FCS
Procedure: as §2, §3

`CC(=O)O[C@H]1C(=O)[C@@]2(C)[C@H]([C@H](OC(=O)c3ccccc3)[C@]3(O)C[C@H](OC(=O)[C@H](O)[C@@H](NC(=O)c4ccccc4)c4ccccc4)C(C)=C1C3(C)C)[C@]1(OC(C)=O)CO[C@@H]1C[C@@H]2O` [Taxol, reference compound] was tested, and the “effect in resistant compared with non-resistant cells” value [1] was “as effective in non-resistant, as resistant cells” and the “apoptosis / cell death” value [2] was “clear ability to undergo a Taxol or H2O2-induced cell death”.
“GQLNHILGILGSPSQED (Synthetic peptide (SPS)) [SPS peptide, NTS-derived peptide of ERK]” was tested, and the “TPA-induced nuclear translocation of ERK” value (ERK1/2) was “prevented TPA-induced nuclear translocation of ERK”.
In the case of `OO` [H2O2], the “apoptosis / cell death” value [2] was “clear ability to undergo a Taxol or H2O2-induced cell death”.
`N#CC(=C(/N)Sc1ccccc1N)/C(C#N)=C(\N)Sc1ccccc1N` [U0126, reference compound] was tested, and the cell morphology (B-Raf melanoma cells) was “A similar appearance, albeit a weaker one” and the “TPA-induced nuclear translocation of ERK” value (ERK1/2) was “inhibition”.
In the case of `CCCS(=O)(=O)Nc1ccc(F)c(C(=O)c2c[nH]c3ncc(-c4ccc(Cl)cc4)cc23)c1F` [PLX4032, reference compound], the “time to complete disappearance of tumors” value (A2352 xenografts; 15 mg/kg, 3 times a week) was 13 to 23 days, the tumor disappearance (A2352 xenografts; 15 mg/kg, 3 times a week, 3 weeks, EPE i.v. (n=7), PLX4032 i.p. (n=5), initial ~80 mm3 tumors) was “complete disappearance in three mice” and the “time to development of resistance (one mouse)” value (A2352 xenografts; during treatment) was at most 13 days. For the same molecule, the “mice with tumor recurrence” value (A2352 xenografts; follow up for up to 11 weeks after last treatment) was 3 out of 5, the viability [3] was “not sensitive to PLX4032” and the viability [4] was “strong inhibitory effect”.
